The assay deals with T1, human derived GPR40 (Homo sapiens, UniProt O14842).
T1 construct: expressed in transfected cells
The experiment in a line: Agonist action on human derived GPR40: change of intracellular calcium concentration in CHO cells (FLIPRtetra). The following applies: agonist activity of compound at 1 μM, relative to 10 μM γ linolenic acid as 100%, wave peak height; CHO cells stably expressing human GPR40. It counts as cell-based. The procedure: The CHO cell lines that stably expressed human derived GPR40 were used for the determination of the agonist activity. Unless particularly specified, the CHO cell lines were cultured in an α-MEM medium (Wako Pure Chemical Industries, Ltd.) containing 10% dialyzed fetal bovine serum (TRA Thermo Electron).
The cells cultured almost to confluent on the day before assay were rinsed with PBS (Invitrogen), detached with 0.5 mM EDTA (Wako Pure Chemical Industries, Ltd.), and recovered by centrifugation. The obtained cells were counted, diluted to 2×10^5 cells per 1 mL medium, dispensed by 40 μL per well to a 384 well black clear bottomplate (PE Biosystems), and cultured overnight in a CO2 incubator. Various test compounds were added to CHO cells prepared as mentioned above, and change of intracellular calcium concentration was measured using FLIPRtetra (Molecular Device). For the measurement by this device, a Calcium 4 assay kit (Molecular Devices: R8142) was used.
First, fatty acid free BSA at the final concentration of 0.1% was added to the buffer attached to the kit to prepare an assay buffer. Using the assay buffer, a loading solution with Fluo4 was prepared such that the final concentration of fatty acid free BSA was 0.1% and the final concentration of probenecid was 625 μM. On the other hand, a test compound was diluted with the assay buffer to a given concentration, and dispensed to the polypropylene 384-well plate (sample plate). The medium was removed from the cell culture plate, and the loading solution with Fluo4 was dispensed by 25 μL. After culture in a CO2 incubator at 37° C. for 40 min, a sample plate and a cell plate were simultaneously set on the FLIPRtetra, various test compounds were added by 25 μL according to the program of the device, and change of intracellular calcium concentration was measured. The agonist activity of each compound at 1 μM was calculated as a relative activity value to the activity of 10 μM γ linolenic acid as 100% from the wave peak height.
In general terms: A change in cytosolic calcium serves as a functional read-out for many receptors and channels.

SMILES strings stand for the structures.

T1 sequence (O14842 whole entry): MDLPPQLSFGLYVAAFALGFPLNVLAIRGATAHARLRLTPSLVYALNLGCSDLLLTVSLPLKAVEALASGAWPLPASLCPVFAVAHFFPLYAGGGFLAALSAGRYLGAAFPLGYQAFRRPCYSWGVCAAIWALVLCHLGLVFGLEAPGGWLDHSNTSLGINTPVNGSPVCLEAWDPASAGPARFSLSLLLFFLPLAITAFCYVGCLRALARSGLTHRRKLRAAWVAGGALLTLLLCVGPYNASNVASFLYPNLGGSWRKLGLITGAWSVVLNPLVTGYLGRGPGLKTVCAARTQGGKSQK

Consider `Cc1cc(-c2cccc3c2OC[C@H]3Nc2ccc3c(c2)OC[C@H]3CC(=O)O)c(C)s1` [Example 3, [(3S)-6-{[(3S)-7-(2,5-dimethylthiophen-3-yl)-2,3-dihydro-1-benzofuran-3-yl]amino}-2,3-dihydro-1-benzofuran-3-yl]acetic acid], for which the “activity (%)” value was determined as 128%.

On to `CCc1nc2ccccc2n1-c1cccc2c1OC[C@H]2Nc1ccc2c(c1)OC[C@H]2CC(=O)[O-].[Na+]` [Example 19, sodium [(3S)-6-{[(3S)-7-(2-ethyl-1H-benzimidazol-1-yl)-2,3-dihydro-1-benzofuran-3-yl]amino}-2,3-dihydro-1-benzofuran-3-yl]acetate], for which the “activity (%)” value turned out to be 129%.

Consider `CCOc1nc2ccc(F)cc2n1-c1cccc2c1OC[C@H]2Nc1ccc2c(c1)OC[C@H]2CC(=O)[O-].[Na+]` [Example 25, sodium [(3S)-6-{[(3S)-7-(2-ethoxy-6-fluoro-1H-benzimidazol-1-yl)-2,3-dihydro-1-benzofuran-3-yl]amino}-2,3-dihydro-1-benzofuran-3-yl]acetate], for which the “activity (%)” value was 129%.

For the molecule `CCc1nc2ccc(F)c(F)c2n1-c1cccc2c1OC[C@H]2Nc1ccc2c(c1)OC[C@H]2CC(=O)[O-].[Na+]` [Example 31, sodium [(3S)-6-{[(3S)-7-(2-ethyl-6,7-difluoro-1H-benzimidazol-1-yl)-2,3-dihydro-1-benzofuran-3-yl]amino}-2,3-dihydro-1-benzofuran-3-yl]acetate], the “activity (%)” value was 127%.

As to `CCOc1nc2c(F)cc(F)cc2n1-c1cccc2c1OC[C@H]2Nc1ccc2c(c1)OC[C@H]2CC(=O)[O-].[Na+]` [Example 37, sodium [(3S)-6-{[(3S)-7-(2-ethoxy-4,6-difluoro-1H-benzimidazol-1-yl)-2,3-dihydro-1-benzofuran-3-yl]amino}-2,3-dihydro-1-benzofuran-3-yl]acetate], the “activity (%)” value stood at 117%.

Regarding `Cc1nn(C(F)F)c(C)c1-c1cccc2c1OCC2Nc1ccc2c(c1)OC[C@H]2CC(=O)O` (stereo partly drawn) [Example 67, [(3S)-6-({7-[1-(difluoromethyl)-3,5-dimethyl-1H-pyrazol-4-yl]-2,3-dihydro-1-benzofuran-3-yl}amino)-2,3-dihydro-1-benzofuran-3-yl]acetic acid], the “activity (%)” value amounted to 111%.

Consider `Cc1nc(N2CCOCC2)nc(C)c1-c1cccc2c1OC[C@H]2Nc1ccc2c(c1)OC[C@H]2CC(=O)O` [Example 77-2, [(3S)-6-({(3S)-7-[4,6-dimethyl-2-(morpholin-4-yl)pyrimidin-5-yl]-2,3-dihydro-1-benzofuran-3-yl}amino)-2,3-dihydro-1-benzofuran-3-yl]acetic acid], for which the “activity (%)” value was 132%.

For `O=C([O-])C[C@@H]1COc2cc(N[C@@H]3COc4c3cccc4N3CCOc4ccccc43)ccc21.[Na+]` [Example 86, sodium [(3S)-6-{[(3S)-7-(2,3-dihydro-4H-1,4-benzooxazin-4-yl)-2,3-dihydro-1-benzofuran-3-yl]amino}-2,3-dihydro-1-benzofuran-3-yl]acetate], the “activity (%)” value is 128%.

`CCN(c1ccc(C#N)cc1F)c1cccc2c1OC[C@H]2Nc1ccc2c(c1)OC[C@H]2CC(=O)O` [Example 89, [(3S)-6-({(3S)-7-[(4-cyano-2-fluorophenyl)(ethyl)amino]-2,3-dihydro-1-benzofuran-3-yl}amino)-2,3-dihydro-1-benzofuran-3-yl]acetic acid]: the “activity (%)” value is 129%.

For the molecule `Cc1nc2ccc(OCC(F)(F)F)cc2n1-c1cccc2c1OC[C@H]2Nc1ccc2c(c1)OC[C@H]2CC(=O)[O-].[Na+]` [Example 99, sodium [(3S)-6-({(3S)-7-[2-methyl-6-(2,2,2-trifluoroethoxy)-1H-benzimidazol-1-yl]-2,3-dihydro-1-benzofuran-3-yl}amino)-2,3-dihydro-1-benzofuran-3-yl]acetate], the “activity (%)” value is given as 123%.

As to `Cc1nn(C(F)F)c(C)c1-c1cccc(CNc2ccc3c(c2)OC[C@H]3CC(=O)O)c1C` [Example 109, [(3S)-6-({3-[1-(difluoromethyl)-3,5-dimethyl-1H-pyrazol-4-yl]-2-methylbenzyl}amino)-2,3-dihydro-1-benzofuran-3-yl]acetic acid], the “activity (%)” value is on record as 122%.

As to `Cc1nc(OC(F)F)nc(C)c1-c1cccc(CNc2ccc3c(c2)OC[C@H]3CC(=O)O)c1C` [Example 114, [(3S)-6-({3-[2-(difluoromethoxy)-4,6-dimethylpyrimidin-5-yl]-2-methylbenzyl}amino)-2,3-dihydro-1-benzofuran-3-yl]acetic acid], the “activity (%)” value was found to be 132%.

Consider `Cc1cc(-c2cccc(CNc3ccc4c(c3)OC[C@H]4CC(=O)O)c2F)c(C)s1` [Example 121, [(3S)-6-{[3-(2,5-dimethylthiophen-3-yl)-2-fluorobenzyl]amino}-2,3-dihydro-1-benzofuran-3-yl]acetic acid], for which the “activity (%)” value stood at 129%.

Take `Cc1c(CNc2ccc3c(c2)OC[C@H]3CC(=O)O)cccc1-n1c(C)nc2cc(C(F)(F)F)ccc21` [Example 131, [(3S)-6-({2-methyl-3-[2-methyl-5-(trifluoromethyl)-1H-benzimidazol-1-yl]benzyl}amino)-2,3-dihydro-1-benzofuran-3-yl]acetic acid]: the “activity (%)” value is listed as 129%.

On to `COc1ccc2c(c1)nc(C1CC1)n2-c1cccc(CNc2ccc3c(c2)OC[C@H]3CC(=O)O)c1C` [Example 149, [(3S)-6-{[3-(2-cyclopropyl-5-methoxy-1H-benzimidazol-1-yl)-2-methylbenzyl]amino}-2,3-dihydro-1-benzofuran-3-yl]acetic acid], for which the “activity (%)” value came out at 90%.

For `Cc1c(CNc2ccc3c(c2)OC[C@H]3CC(=O)O)cccc1-n1c(C)nc2c(C)cccc21` [Example 153, [(3S)-6-{[3-(2,4-dimethyl-1H-benzimidazol-1-yl)-2-methylbenzyl]amino}-2,3-dihydro-1-benzofuran-3-yl]acetic acid], the “activity (%)” value is reported as 111%.

With `CCc1nc2ccc(Cl)cc2n1-c1cccc(CNc2ccc3c(c2)OC[C@H]3CC(=O)[O-])c1C.[Na+]` [Example 173, sodium [(3S)-6-{[3-(6-chloro-2-ethyl-1H-benzimidazol-1-yl)-2-methylbenzyl]amino}-2,3-dihydro-1-benzofuran-3-yl]acetate], the “activity (%)” value amounted to 121%.

With `CCOc1nc2c(OCC(F)(F)F)cccc2n1-c1cccc(CNc2ccc3c(c2)OC[C@H]3CC(=O)O)c1C` [Example 180, [(3S)-6-({3-[2-ethoxy-4-(2,2,2-trifluoroethoxy)-1H-benzimidazol-1-yl]-2-methylbenzyl}amino)-2,3-dihydro-1-benzofuran-3-yl]acetic acid], the “activity (%)” value was found to be 125%.

Turning to `Cc1nc2ccccn2c1-c1cccc(CNc2ccc3c(c2)OC[C@H]3CC(=O)O)c1C` [Example 201, [(3S)-6-{[2-methyl-3-(2-methylimidazo[1,2-a]pyridin-3-yl)benzyl]amino}-2,3-dihydro-1-benzofuran-3-yl]acetic acid], the “activity (%)” value worked out at 124%.

As to `COc1ccc(-c2c(C(F)(F)F)ccc(CNc3ccc4c(c3)OC[C@H]4CC(=O)O)c2C)cn1` [Example 207, [(3S)-6-{[3-(6-methoxypyridin-3-yl)-2-methyl-4-(trifluoromethyl)benzyl]amino}-2,3-dihydro-1-benzofuran-3-yl]acetic acid], the “activity (%)” value turned out to be 121%.

On to `Cc1ccc(CNc2ccc3c(c2)OC[C@H]3CC(=O)O)c(C)c1-c1ccc2nc(C(F)(F)F)cn2c1` [Example 219, [(3S)-6-({2,4-dimethyl-3-[2-(trifluoromethyl)imidazo[1,2-a]pyridin-6-yl]benzyl}amino)-2,3-dihydro-1-benzofuran-3-yl]acetic acid], for which the “activity (%)” value was 125%.

Turning to `Cc1oc2cccnc2c1-c1cccc(CNc2ccc3c(c2)OC[C@H]3CC(=O)O)c1C` [Example 221, [(3S)-6-{[2-methyl-3-(2-methylfuro[3,2-b]pyridin-3-yl)benzyl]amino}-2,3-dihydro-1-benzofuran-3-yl]acetic acid], the “activity (%)” value is 126%.

For `Cc1oc2ncccc2c1-c1cccc(CNc2ccc3c(c2)OC[C@H]3CC(=O)O)c1C` [Example 223, [(3S)-6-{[2-methyl-3-(2-methylfuro[2,3-b]pyridin-3-yl)benzyl]amino}-2,3-dihydro-1-benzofuran-3-yl]acetic acid], the “activity (%)” value was found to be 111%.

Regarding `CCOc1nc2ccc(F)cc2n1-c1cccc2c1CCC2Nc1ccc2c(c1)OC[C@H]2CC(=O)[O-].[Na+]` (stereo partly drawn) [Example 227, sodium [(3S)-6-{[4-(2-ethoxy-6-fluoro-1H-benzimidazol-1-yl)-2,3-dihydro-1H-inden-1-yl]amino}-2,3-dihydro-1-benzofuran-3-yl]acetate], the “activity (%)” value came to 105%.

On to `CCCN(c1ccc(F)cn1)c1cccc(CNc2ccc3c(c2)OC[C@H]3CC(=O)O)c1C` [Example 232, [(3S)-6-({3-[(5-fluoropyridin-2-yl)(propyl)amino]-2-methylbenzyl}amino)-2,3-dihydro-1-benzofuran-3-yl]acetic acid], for which the “activity (%)” value came to 121%.

Values taken from patent publication US20120172351A1, “NOVEL FUSED CYCLIC COMPOUND AND USE THEREOF” (priority 2009, published 2012).
